In US20250186436A1 (4E Therapeutics, Inc., priority 2021, published 2025):
Values joined by “and” are separate entries in the source; they are usually repeats but may differ in a detail not shown here. Equal entries are not always repeated. Where two headings read alike, the source gives them in different places.

Tests used:
[1] = Plasma and brain concentrations, brain:plasma ratio in rats 2 hr after single PO 1 mg/kg (Example 5); assay type: in vivo; details: for concentration at 2 hr: po
Description: Table 15 provides plasma and brain concentrations at 2 hr after a single P0 dose of 1 mg/kg.

[2] = PK study in male Sprague-Dawley rats dosed once per day for five days, PO 1 mg/kg, 0.5% HPMC (Example 6); assay type: in vivo; details: 0.5% HPMC suspension
Description: Example 6: PK study of 4ET-03-053 in male Sprague-Dawley rats dosed once per day for five days (P0; 1 mg/kg; 0.500HPMC aqueous suspension)
Table 18 provides plasma and brain concentrations of 4ET-03-0053 at 24 hr after the last dose of five daily P0 doses.

[3] = Sprague-Dawley rats, day 5 of daily PO 1 mg/kg, individual animals, 1 mg/kg
[4] = Sprague-Dawley rats, day 5 of daily PO 1 mg/kg, mean (n = 3)
[5] = male Sprague-Dawley rats, single (first) PO 1 mg/kg dose, individual animals, 1 mg/kg
[6] = male Sprague-Dawley rats, single (first) PO 1 mg/kg dose, mean (n = 3)
[7] = male, Sprague-Dawley, rat, in vivo, po, 1 mg/kg, Sprague-Dawley rats, day 5 of daily PO 1 mg/kg, individual animals
[8] = male, Sprague-Dawley, rat, in vivo, po, 1 mg/kg, Sprague-Dawley rats, day 5 of daily PO 1 mg/kg, mean (n = 3)
[9] = male, Sprague-Dawley, rat, in vivo, po, 1 mg/kg, male Sprague-Dawley rats, single (first) PO 1 mg/kg dose, individual animals

## Cc1cc(Nc2cc(N)ncn2)c(=O)n2c1C(=O)NC21CCC2(CC2)CC1 [4ET-03-053, 6″-((6-Aminopyrimidin-4-yl)amino)-8″-methyl-2″H-dispiro[cyclopropane-1,1′-cyclohexane-4′,3″-imidazo[1,5-a]pyridine]-1″,5″-dione]
[1]; male, Sprague-Dawley, rat, brain homogenate, 1 mg/kg, rats, brain homogenate, 2 hr after single PO 1 mg/kg, individual animals (n = 3), read-out: Tissue Homogenate Conc.
  concentration at 2 hr: 9.82 ng/mL
[1]; male, Sprague-Dawley, rat, brain homogenate, 1 mg/kg, rats, brain homogenate, 2 hr after single PO 1 mg/kg, mean, read-out: Tissue Homogenate Conc., Mean
  concentration at 2 hr: 11.8 ng/mL
[1]; male, Sprague-Dawley, rat, brain, 1 mg/kg, rats, brain, 2 hr after single PO 1 mg/kg, read-out: Mean Tissue
  concentration at 2 hr: 47.2 ng/g
[1]; male, Sprague-Dawley, rat, plasma, 1 mg/kg, rats, plasma, 2 hr after single PO 1 mg/kg, individual animals (n = 3), read-out: Plasma Conc.
  concentration at 2 hr: 506 ng/mL
[1]; male, Sprague-Dawley, rat, plasma, 1 mg/kg, rats, plasma, 2 hr after single PO 1 mg/kg, mean, read-out: Plasma Conc., Mean
  concentration at 2 hr: 566 ng/mL
[1]; male, Sprague-Dawley, rat, rats, brain to plasma, 2 hr after single PO 1 mg/kg, read-out: Mean Tissue/Plasma Conc. Ratio
  Kp at 2 hr: 0.083
[1]; rat, brain, Sprague-Dawley rats, 2 hr after a single PO dose of 1 mg/kg
  Kp at 2 h: 0.083
[1]; rats, brain homogenate, 2 hr after single PO 1 mg/kg, individual animals (n = 3), 1 mg/kg
  Tissue Homogenate Conc.: 11.4 ng/mL and 14.2 ng/mL
[1]; rats, plasma, 2 hr after single PO 1 mg/kg, individual animals (n = 3), 1 mg/kg
  Plasma Conc.: 539 ng/mL and 652 ng/mL
[2]; Sprague-Dawley rats, after five daily PO doses of 1 mg/kg
  time to peak plasma concentration: ≤ 2 h
[2]; [3]
  AUCinf: 43537 ng·h/mL and 36277 ng·h/mL
  AUCinf/D: 49825 kg·h/kL and 43537 kg·h/kL and 36277 kg·h/kL
  AUClast: 40882 ng·h/mL and 34335 ng·h/mL
  Clast: 318 ng/mL and 291 ng/mL
  Cmax: 4550 ng/mL and 4500 ng/mL
  Cmax/D: 4150 kg/kL and 4550 kg/kL and 4500 kg/kL
  F: 96.8% and 84.6% and 70.5%
  MRTinf: 7.96 h
  t1/2: 5.90 h and 6.21 h
[2]; [4]
  AUCinf/D: 43213 kg·h/kL
  Cmax/D: 4400 kg/kL
  F: 84.0%
[2]; [5]
  AUCinf: 33302 ng·h/mL and 30451 ng·h/mL
  AUCinf/D: 37178 kg·h/kL and 33302 kg·h/kL and 30451 kg·h/kL
  AUClast: 31340 ng·h/mL and 28992 ng·h/mL
  Clast: 237 ng/mL and 224 ng/mL
  Cmax: 2750 ng/mL
  Cmax/D: 2400 kg/kL and 2750 kg/kL and 2580 kg/kL
  F: 72.2% and 64.7% and 59.2%
  MRTinf: 8.31 h and 7.83 h
  t1/2: 5.77 h and 5.92 h
[2]; [6]
  AUCinf/D: 33644 kg·h/kL
  Cmax/D: 2577 kg/kL
  F: 65.4%
[2]; male Sprague-Dawley rats, single PO 1 mg/kg
  time to peak plasma concentration: ≤ 2 h
[2]; male, Sprague-Dawley, rat, in vivo, po, 1 mg/kg, Sprague-Dawley rats, after five daily PO doses of 1 mg/kg
  bioavailability: 84%
[2]; male, Sprague-Dawley, rat, in vivo, po, 1 mg/kg, Sprague-Dawley rats, after five daily PO doses of 1 mg/kg, at 24 hr, read-out: last measurable concentration
  concentration at 24 h: 278 ng/mL
[2]; male, Sprague-Dawley, rat, in vivo, po, 1 mg/kg, Sprague-Dawley rats, after five daily PO doses of 1 mg/kg, read-out: peak plasma concentration (Cmax)
  Cmax: 4400 ng/mL
[2]; male, Sprague-Dawley, rat, in vivo, po, 1 mg/kg, Sprague-Dawley rats, after five daily PO doses of 1 mg/kg, read-out: terminal half-life (t1/2) (converted)
  half-life: 6.01 h
[2]; male, Sprague-Dawley, rat, in vivo, po, 1 mg/kg, Sprague-Dawley rats, after five daily PO doses of 1 mg/kg, read-out: total systemic exposure (AUCinf)
  AUC(0-inf): 43200 ng·h/mL
[2]; [7]
  AUC(0-t): 47100 ng·h/mL
  MRT inf: 7.89 h
  Tmax: 1 h
[2]; male, Sprague-Dawley, rat, in vivo, po, 1 mg/kg, Sprague-Dawley rats, day 5 of daily PO 1 mg/kg, individual animals, read-out: AUCinf
  AUC(0-inf): 49800 ng·h/mL
[2]; male, Sprague-Dawley, rat, in vivo, po, 1 mg/kg, Sprague-Dawley rats, day 5 of daily PO 1 mg/kg, individual animals, read-out: Clast
  concentration at 24 h: 226 ng/mL
[2]; male, Sprague-Dawley, rat, in vivo, po, 1 mg/kg, Sprague-Dawley rats, day 5 of daily PO 1 mg/kg, individual animals, read-out: Cmax
  Cmax: 4150 ng/mL
[2]; male, Sprague-Dawley, rat, in vivo, po, 1 mg/kg, Sprague-Dawley rats, day 5 of daily PO 1 mg/kg, individual animals, read-out: t1/2 (converted)
  half-life: 5.91 h
[2]; [8]
  AUC(0-t): 40800 ng·h/mL
  MRT inf: 7.8 h
  Tmax: 1.33 h
[2]; male, Sprague-Dawley, rat, in vivo, po, 1 mg/kg, Sprague-Dawley rats, day 5 of daily PO 1 mg/kg, mean (n = 3), read-out: AUCinf
  AUC(0-inf): 43200 ng·h/mL
[2]; male, Sprague-Dawley, rat, in vivo, po, 1 mg/kg, Sprague-Dawley rats, day 5 of daily PO 1 mg/kg, mean (n = 3), read-out: Clast
  concentration at 24 h: 278 ng/mL
[2]; male, Sprague-Dawley, rat, in vivo, po, 1 mg/kg, Sprague-Dawley rats, day 5 of daily PO 1 mg/kg, mean (n = 3), read-out: Cmax
  Cmax: 4400 ng/mL
[2]; male, Sprague-Dawley, rat, in vivo, po, 1 mg/kg, Sprague-Dawley rats, day 5 of daily PO 1 mg/kg, mean (n = 3), read-out: t1/2 (converted)
  half-life: 6.01 h
[2]; [9]
  AUC(0-t): 35100 ng·h/mL
  MRT inf: 8.25 h
